# Test results as given in US10947188B2, “Small molecule ferroptosis inducers” (THE TRUSTEES OF COLUMBIA UNIVERSITY IN THE CITY OF NEW YORK, priority 2016, dated 2021).
# Test system: BJeLR
# Assay: Modulatory profiling: Alamar Blue viability, lethal compound cotreated with death modulator (EC50, AUC); as to AUC, modulator BJ.3MA: reference of the scale not given here; as to AUC, modulator BJ.ALLN: reference of the scale not given here; as to AUC, modulator BJ.Boc D: reference of the scale not given here; as to AUC, modulator BJ.CHX: reference of the scale not given here; as to AUC, modulator BJ.Co2+: reference of the scale not given here; as to AUC, modulator BJ.DPQ: reference of the scale not given here; as to AUC, modulator BJ.Gd3+: reference of the scale not given here; as to AUC, modulator BJ.LNAME: reference of the scale not given here; as to AUC, modulator BJ.NAD+: reference of the scale not given here; as to AUC, modulator BJ.NMMA: reference of the scale not given here; as to AUC, modulator BJ.Nec-1: reference of the scale not given here; as to AUC, modulator BJ.Pepstatin: reference of the scale not given here; as to AUC, modulator BJ.TLCK: reference of the scale not given here
# Assay type: cell-based, human
# Design: AUC, modulator BJ.Gd3+ / AUC, modulator BJ.LNAME / AUC, modulator BJ.Lmin / AUC, modulator BJ.3MA / AUC, modulator BJ.ALLN / AUC, modulator BJ.Boc D / AUC, modulator BJ.CHX / AUC, modulator BJ.Co2+ / AUC, modulator BJ.Nec-1 / AUC, modulator BJ.Pepstatin / AUC, modulator BJ.TLCK / AUC, modulator BJ.atoc / AUC, modulator BJ.trolox / AUC, modulator BJ.zVAD: unit not given beside the values
# Conditions: BJeLR cells, modulatory profile value (AUC); for AUC, modulator BJ.3MA: lethal compound cotreated with modulator 3MA; for AUC, modulator BJ.ALLN: lethal compound cotreated with modulator ALLN; for AUC, modulator BJ.Boc D: lethal compound cotreated with modulator Boc D; for AUC, modulator BJ.CHX: lethal compound cotreated with modulator CHX; for AUC, modulator BJ.Co2+: lethal compound cotreated with modulator Co2+; for AUC, modulator BJ.DPQ: lethal compound cotreated with modulator DPQ; for AUC, modulator BJ.Gd3+: lethal compound cotreated with modulator Gd3+; for AUC, modulator BJ.LNAME: lethal compound cotreated with modulator LNAME; for AUC, modulator BJ.Lmin/NAD+: lethal compound cotreated with modulator Lmin/NAD+; for AUC, modulator BJ.Lmin: lethal compound cotreated with modulator Lmin; for AUC, modulator BJ.NAD+: lethal compound cotreated with modulator NAD+; for AUC, modulator BJ.NMMA: lethal compound cotreated with modulator NMMA; for AUC, modulator BJ.Nec-1: lethal compound cotreated with modulator Nec-1; for AUC, modulator BJ.Pepstatin: lethal compound cotreated with modulator Pepstatin; for AUC, modulator BJ.TLCK: lethal compound cotreated with modulator TLCK; for AUC, modulator BJ.atoc: lethal compound cotreated with modulator atoc; for AUC, modulator BJ.trolox: lethal compound cotreated with modulator trolox; for AUC, modulator BJ.zVAD: lethal compound cotreated with modulator zVAD
smiles,measurement,value
CC[C@@]1(O)C(=O)OCc2c1cc1n(c2=O)Cc2cc3ccccc3nc2-1 [Camptothecin],"AUC, modulator BJ.3MA",−0.02027
same,"AUC, modulator BJ.ALLN",0.03368
same,"AUC, modulator BJ.Boc D",0.07983
same,"AUC, modulator BJ.CHX",0.1233
same,"AUC, modulator BJ.Co2+",0.02899
same,"AUC, modulator BJ.DPQ",−0.01119
same,"AUC, modulator BJ.Gd3+",−0.007898
same,"AUC, modulator BJ.LNAME",0.003206
same,"AUC, modulator BJ.Lmin/NAD+",0.1164
same,"AUC, modulator BJ.Lmin",0.02947
same,"AUC, modulator BJ.NAD+",0.112
same,"AUC, modulator BJ.NMMA",−0.006852
same,"AUC, modulator BJ.Nec-1",0.02477
same,"AUC, modulator BJ.Pepstatin",0.01408
same,"AUC, modulator BJ.TLCK",0.02306
same,"AUC, modulator BJ.atoc",0.01158
same,"AUC, modulator BJ.trolox",0.04874
same,"AUC, modulator BJ.zVAD",0.08241
COc1cc2c(c(OC)c1OC)-c1ccc(OC)c(=O)cc1[C@@H](NC(C)=O)CC2 [Colchicine],"AUC, modulator BJ.3MA",0.003026
same,"AUC, modulator BJ.ALLN",−0.03356
same,"AUC, modulator BJ.Boc D",−0.0009082
same,"AUC, modulator BJ.CHX",0.161
same,"AUC, modulator BJ.Co2+",0.1688
same,"AUC, modulator BJ.DPQ",−0.03053
same,"AUC, modulator BJ.Gd3+",−0.01061
same,"AUC, modulator BJ.LNAME",−0.008548
same,"AUC, modulator BJ.Lmin/NAD+",0.1409
same,"AUC, modulator BJ.Lmin",0.05808
same,"AUC, modulator BJ.NAD+",0.1128
same,"AUC, modulator BJ.NMMA",−0.005221
same,"AUC, modulator BJ.Nec-1",−0.04443
same,"AUC, modulator BJ.Pepstatin",0.003669
same,"AUC, modulator BJ.TLCK",−0.01338
same,"AUC, modulator BJ.atoc",−0.02812
same,"AUC, modulator BJ.trolox",−0.004229
same,"AUC, modulator BJ.zVAD",0.05702
COc1cccc2c1C(=O)c1c(O)c3c(c(O)c1C2=O)C[C@@](O)(C(C)=O)C[C@@H]3O[C@H]1C[C@H](N)[C@H](O)[C@H](C)O1 [Daunorubicin],"AUC, modulator BJ.3MA",0.03793
same,"AUC, modulator BJ.ALLN",0.02846
same,"AUC, modulator BJ.Boc D",0.03322
same,"AUC, modulator BJ.CHX",0.1497
same,"AUC, modulator BJ.Co2+",0.2122
same,"AUC, modulator BJ.DPQ",−0.03527
same,"AUC, modulator BJ.Gd3+",−0.005247
same,"AUC, modulator BJ.LNAME",0.005526
same,"AUC, modulator BJ.Lmin/NAD+",0.1434
same,"AUC, modulator BJ.Lmin",0.05475
same,"AUC, modulator BJ.NAD+",0.1226
same,"AUC, modulator BJ.NMMA",−0.01867
same,"AUC, modulator BJ.Nec-1",−0.02055
same,"AUC, modulator BJ.Pepstatin",0.02539
same,"AUC, modulator BJ.TLCK",0.02856
same,"AUC, modulator BJ.atoc",0.004145
same,"AUC, modulator BJ.trolox",−0.02026
same,"AUC, modulator BJ.zVAD",0.05594
COc1cccc2c1C(=O)c1c(O)c3c(c(O)c1C2=O)C[C@@](O)(C(=O)CO)C[C@@H]3O[C@H]1C[C@H](N)[C@H](O)[C@H](C)O1 [Doxorubicin],"AUC, modulator BJ.3MA",0.03113
same,"AUC, modulator BJ.ALLN",0.01555
same,"AUC, modulator BJ.Boc D",0.04966
same,"AUC, modulator BJ.CHX",0.1412
same,"AUC, modulator BJ.Co2+",0.1971
same,"AUC, modulator BJ.DPQ",0.004462
same,"AUC, modulator BJ.Gd3+",−0.01105
same,"AUC, modulator BJ.LNAME",0.01382
same,"AUC, modulator BJ.Lmin/NAD+",0.1477
same,"AUC, modulator BJ.Lmin",0.05475
same,"AUC, modulator BJ.NAD+",0.1339
same,"AUC, modulator BJ.NMMA",−0.007486
same,"AUC, modulator BJ.Nec-1",−0.003677
same,"AUC, modulator BJ.Pepstatin",0.01775
same,"AUC, modulator BJ.TLCK",0.03307
same,"AUC, modulator BJ.atoc",0.01689
same,"AUC, modulator BJ.trolox",0.01164
same,"AUC, modulator BJ.zVAD",0.05543
CS[C@H]1SC[C@H]2C(=O)N(C)[C@@H](C(C)C)C(=O)OC[C@@H](NC(=O)c3cnc4ccccc4n3)C(=O)N[C@@H](C)C(=O)N(C)[C@@H]1C(=O)N(C)[C@@H](C(C)C)C(=O)OC[C@@H](NC(=O)c1cnc3ccccc3n1)C(=O)N[C@@H](C)C(=O)N2C [Echinomycin],"AUC, modulator BJ.3MA",0.3457
same,"AUC, modulator BJ.ALLN",0.02426
same,"AUC, modulator BJ.Boc D",0.04925
same,"AUC, modulator BJ.CHX",0.2015
same,"AUC, modulator BJ.Co2+",0.09321
same,"AUC, modulator BJ.DPQ",−0.004325
same,"AUC, modulator BJ.Gd3+",0.002041
same,"AUC, modulator BJ.LNAME",0.01199
same,"AUC, modulator BJ.Lmin/NAD+",0.2351
same,"AUC, modulator BJ.Lmin",0.1205
same,"AUC, modulator BJ.NAD+",0.2292
same,"AUC, modulator BJ.NMMA",0.01082
same,"AUC, modulator BJ.Nec-1",−0.01901
same,"AUC, modulator BJ.Pepstatin",−0.004369
same,"AUC, modulator BJ.TLCK",−0.001724
same,"AUC, modulator BJ.atoc",0.1681
same,"AUC, modulator BJ.trolox",−0.04322
same,"AUC, modulator BJ.zVAD",0.005973
COc1cc([C@@H]2c3cc4c(cc3[C@@H](O[C@@H]3O[C@@H]5CO[C@@H](C)O[C@H]5[C@H](O)[C@H]3O)[C@H]3COC(=O)[C@H]23)OCO4)cc(OC)c1O [Etoposide],"AUC, modulator BJ.3MA",−0.06196
same,"AUC, modulator BJ.ALLN",0.06099
same,"AUC, modulator BJ.Boc D",0.0612
same,"AUC, modulator BJ.CHX",0.1255
same,"AUC, modulator BJ.Co2+",0.0951
same,"AUC, modulator BJ.DPQ",−0.0469
same,"AUC, modulator BJ.Gd3+",0.01317
same,"AUC, modulator BJ.LNAME",0.004515
same,"AUC, modulator BJ.Lmin/NAD+",0.1011
same,"AUC, modulator BJ.Lmin",0.04682
same,"AUC, modulator BJ.NAD+",0.08359
same,"AUC, modulator BJ.NMMA",−0.03678
same,"AUC, modulator BJ.Nec-1",−0.04354
same,"AUC, modulator BJ.Pepstatin",0.01632
same,"AUC, modulator BJ.TLCK",0.01399
same,"AUC, modulator BJ.atoc",−0.01038
same,"AUC, modulator BJ.trolox",−0.01808
same,"AUC, modulator BJ.zVAD",0.06084
CC(C)C[C@H](NC(=O)[C@H](CC(C)C)NC(=O)[C@H](CC(C)C)NC(=O)OCc1ccccc1)B(O)O [MG262],"AUC, modulator BJ.3MA",−0.0362
same,"AUC, modulator BJ.ALLN",−0.1989
same,"AUC, modulator BJ.Boc D",0.01756
same,"AUC, modulator BJ.CHX",0.2438
same,"AUC, modulator BJ.Co2+",0.1109
same,"AUC, modulator BJ.DPQ",0.005064
same,"AUC, modulator BJ.Gd3+",0.02134
same,"AUC, modulator BJ.LNAME",0.02272
same,"AUC, modulator BJ.Lmin/NAD+",0.152
same,"AUC, modulator BJ.Lmin",0.1437
same,"AUC, modulator BJ.NAD+",0.06084
same,"AUC, modulator BJ.NMMA",−0.006928
same,"AUC, modulator BJ.Nec-1",−0.01342
same,"AUC, modulator BJ.Pepstatin",0.006624
same,"AUC, modulator BJ.TLCK",0.09405
same,"AUC, modulator BJ.atoc",0.05198
same,"AUC, modulator BJ.trolox",0.008087
same,"AUC, modulator BJ.zVAD",−0.05498
Nc1ccccc1NC(=O)c1ccc(CNC(=O)OCc2cccnc2)cc1 [MS275],"AUC, modulator BJ.3MA",−0.02606
same,"AUC, modulator BJ.ALLN",−0.03932
same,"AUC, modulator BJ.Boc D",0.08944
same,"AUC, modulator BJ.CHX",0.2266
same,"AUC, modulator BJ.Co2+",0.2326
same,"AUC, modulator BJ.DPQ",−0.009656
same,"AUC, modulator BJ.Gd3+",0.023
same,"AUC, modulator BJ.LNAME",0.02321
same,"AUC, modulator BJ.Lmin/NAD+",0.1569
same,"AUC, modulator BJ.Lmin",−0.001183
same,"AUC, modulator BJ.NAD+",0.1269
same,"AUC, modulator BJ.NMMA",−0.003779
same,"AUC, modulator BJ.Nec-1",−0.01329
same,"AUC, modulator BJ.Pepstatin",−0.01824
same,"AUC, modulator BJ.TLCK",0.08474
same,"AUC, modulator BJ.atoc",−0.008452
same,"AUC, modulator BJ.trolox",−0.001137
same,"AUC, modulator BJ.zVAD",0.1415
O=C1c2c(O)ccc(O)c2C(=O)c2c(NCCNCCO)ccc(NCCNCCO)c21 [Mitoxantrone],"AUC, modulator BJ.3MA",0.03352
same,"AUC, modulator BJ.ALLN",0.06204
same,"AUC, modulator BJ.Boc D",0.03746
same,"AUC, modulator BJ.CHX",0.1437
same,"AUC, modulator BJ.Co2+",0.4538
same,"AUC, modulator BJ.DPQ",−0.05814
same,"AUC, modulator BJ.Gd3+",0.01069
same,"AUC, modulator BJ.LNAME",0.007578
same,"AUC, modulator BJ.Lmin/NAD+",0.1162
same,"AUC, modulator BJ.Lmin",0.04368
same,"AUC, modulator BJ.NAD+",0.08733
same,"AUC, modulator BJ.NMMA",0.004431
same,"AUC, modulator BJ.Nec-1",−0.03038
same,"AUC, modulator BJ.Pepstatin",0.003263
same,"AUC, modulator BJ.TLCK",0.02288
same,"AUC, modulator BJ.atoc",0.02585
same,"AUC, modulator BJ.trolox",−0.01862
same,"AUC, modulator BJ.zVAD",0.0497
